Laboratory results as given in article PMC3403540, “Active Hydrophilic Components of the Medicinal Herb Salvia miltiorrhiza (Danshen) Potently Inhibit Organic Anion Transporters 1 (Slc22a6) and 3 (Slc22a8)” (Evidence-based Complementary and Alternative Medicine : eCAM, 2012).

Assays:
[1] = molecular target: T1, mOat3 (Mus musculus, UniProt O88909); test: Inhibition of mOat3-mediated [3H]ES uptake in CHO-mOat3 cells (cell accumulation assay); assay type: cell-based, murine; conditions: for Ki / inhibition at 1000 µM: 1 μM [3H]ES; for Ki: 1 min, CHO-mOat3, mean ± S.E.M. (n = 3), from IC50 via Cheng-Prusoff, read-out: Estimated K i for mOat3-mediated transport; for inhibition at 1000 µM: 1 mM (1000 μM) inhibitor, 10 min, CHO-mOat3 cells, read-out: inhibition of mOat3-mediated ES uptake; for mode of inhibition of mOat3-mediated transport: mixed inhibition model, ES substrate
T1 construct: expressed in transfected cells; host or cells: CHO (Chinese hamster ovary), stably transfected (CHO-mOat3)
T1 sequence (O88909 1-537): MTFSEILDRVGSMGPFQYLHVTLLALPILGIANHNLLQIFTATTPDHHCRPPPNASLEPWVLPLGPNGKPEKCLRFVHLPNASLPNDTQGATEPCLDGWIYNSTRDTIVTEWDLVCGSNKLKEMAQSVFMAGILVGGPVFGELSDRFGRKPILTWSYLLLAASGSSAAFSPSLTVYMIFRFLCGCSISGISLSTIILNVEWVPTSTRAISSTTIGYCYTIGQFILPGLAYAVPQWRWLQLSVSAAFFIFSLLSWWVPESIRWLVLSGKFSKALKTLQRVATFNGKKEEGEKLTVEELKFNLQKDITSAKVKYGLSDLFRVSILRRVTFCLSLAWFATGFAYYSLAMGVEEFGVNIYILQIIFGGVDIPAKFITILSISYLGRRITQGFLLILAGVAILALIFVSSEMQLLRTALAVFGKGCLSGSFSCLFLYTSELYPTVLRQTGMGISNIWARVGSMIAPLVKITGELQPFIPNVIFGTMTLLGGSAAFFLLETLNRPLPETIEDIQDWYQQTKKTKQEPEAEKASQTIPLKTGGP
Protocol: Derivation of the stably transfected Chinese hamster ovary (CHO) cell lines expressing mOat1 (CHO-mOat1), mOat3 (CHO-mOat3), and the empty vector (FRT) transfected control cell line (CHO-FRT) was described previously.
Cell transport assay procedures were adapted from those previously published. In brief, 2 × 10^5 cells/well were seeded in 24-well tissue culture plates and grown in the absence of antibiotics for 48 hr. On the day of the experiment, cells were equilibrated with transport buffer for 10 min (500 μL of Hanks' balanced salt solution containing 10 mM HEPES, pH 7.4). […] After incubation, cells were immediately rinsed three times with ice-cold transport buffer, lysed, and analyzed via liquid scintillation counting. Uptake values were normalized to corresponding total protein content in cell lysates as determined by the Bradford method. Substrate accumulation is reported as picomoles of substrate per milligram protein. […] Kinetic calculations were performed using GraphPad Prism Software version 5.0 (GraphPad Software Inc., San Diego, CA, USA). Michaelis constant (K m) values were calculated by nonlinear regression using the Michaelis-Menten model. Mode of inhibition was identified by using mixed model inhibition analysis as follows: (1) Vmax Apparent =Vmax/(1+[I]/(α×Ki)),Km Apparent=Km1+[I]/Ki/(1+[I]/(α×Ki)),Y=Vmax Apparent×x/Km Apparent+x, where V max, K i, and I represent the maximum transport velocity without inhibitor, the inhibition constant generated from the data set under analysis, and the concentration of inhibitor, respectively. In this study, three curves were constructed (no inhibitor, plus two selected inhibitor concentrations) with uptake of substrate plotted as a function of its concentration for each condition. […] The parameter, α, can then be used to determine the mode of inhibition. When α is very large (α > 1), it indicates competitive inhibition. Otherwise, it indicates noncompetitive inhibition (α = 1) or uncompetitive inhibition (0 < α < 1). To estimate K i values, IC50 values were calculated using nonlinear regression and inserted into the Cheng-Prusoff equation: K i = IC50/(1 + [Substrate]/K m). Results were confirmed by repeating all experiments at least three times with triplicate wells for each data point in every experiment.
Figure 2 Inhibition profile of mOat1 and mOat3. […] (5 μM) by LSA, PCA, RMA, SAA, SAB, TSL, and probenecid (1000 μM) was measured in the CHO-mOat1 cells (10 min). […] (b) Inhibition of mOat3-mediated uptake of [^3H]ES (1 μM) by LSA, PCA, RMA, SAA, SAB, TSL, and probenecid (1000 μM) was measured in the CHO-mOat3 cells (10 min). […] Values are mean ± S.D. of triplicate values. ***denotes P < 0.001 as determined by one-way ANOVA followed by Dunnett's t-test.
Figure 5 K i determination for LSA, RMA, and SAA in the CHO-mOat3 cell line. One minute uptake of [^3H]ES (1 μM) in CHO-mOat3 cells was measured in the presence of increasing concentrations (10^−7 to 4 × 10^−4 M) of LSA, RMA, and SAA. Data were corrected for nonspecific background measured in the CHO-FRT cells prior to kinetic analysis. K i values were determined with non-linear regression and the “one-site competition” model using GraphPad Prism software. Graphs shown are from representative experiments with values plotted as mean ± S.D. (n = 3).

[2] = set-up: method as in PMID 15866491; conditions: healthy humans, i.v. dosing of a Danshen product; cited from earlier work
[3] = rat plasma; cited from earlier work
[4] = rats, cited from earlier work

Row | SMILES | Ki [1] [µM] | inhibition at 1000 µM [1] [%] | mode of inhibition of mOat3-mediated transport [1] | Cmax [2] [µM] | Estimated α value from mixed inhibition model analysis, mOat3 ([1]; 1 μM ES for 1 min, mean, α > 1 indicates competitive inhibition) | plasma protein binding [3] [%] | increase of AUC on spiking additional SAA into Danshen preparations [4] [%] | reduction of clearance on spiking additional SAA into Danshen preparations [4] [%] | unbound renal clearance relative to glomerular filtration rate ([4]; fold greater than the glomerular filtration rate)
1 | O=C(/C=C/c1ccc(O)c2c1[C@H](C(=O)O)[C@@H](c1ccc(O)c(O)c1)O2)O[C@H](Cc1ccc(O)c(O)c1)C(=O)O [LSA, lithospermic acid] | 31.1 ± 7 | > 91 | competitive | 2.1 |  |  |  |  | 
2 | O=C(/C=C/c1ccc(O)c(O)c1)O[C@H](Cc1ccc(O)c(O)c1)C(=O)O [RMA, rosmarinic acid] | 4.3 ± 0.2 | > 91 | competitive | 6.7 |  |  |  |  | 
3 | O=C(/C=C/c1ccc(O)c(O)c1/C=C/c1ccc(O)c(O)c1)O[C@H](Cc1ccc(O)c(O)c1)C(=O)O [SAA, salvianolic acid A] | 21.3 ± 7.7 | > 91 | competitive |  | 3.4 × 10^14 |  |  |  | 
4 | O=C(O)C(O)Cc1ccc(O)c(O)c1 (centres unmarked) [TSL, tanshinol] |  | ~55 |  |  |  | 25 | 26.7 | 32.9 | ~ 5 X
